Like-named read-outs stand apart in the source and are kept apart here.
Tests used:
Assay type in all cases: cell-based, human
[1] = system: hMSCs; assay: Chondrocyte differentiation, collagen accumulation by Sirius red/fast green staining; details: for activation at 5000 µM: Homo sapiens, Chondrocyte, 504 h, read-out: % increase over controls (chondrocyte differentiation); for Absorbance at 540nm, Chondrocyte-differentiated cells: 21 days; for Absorbance at 540nm, Control cells: no differentiation protocol
Description: (§1) Cells at passage 6 were seeded at a density of 2x10^5 (adipogenesis and chondrogenesis) or 3x10^4 (osteogenesis) into wells of a 6 well tissue culture plate. Kits for differentiation along adipogenic, chondrocytic and osteocytic lineages were obtained from Lonza and accompanying protocols followed. Early stage characteristics of differentiation were then assessed. Adipocytes were assayed for fat accumulation after 18 days from the onset of the differentiation protocol. Cells were fixed by incubating for 10 minutes in 10% formalin, followed by 60 minutes in fresh 10% formalin and washing with 60% isopropanol. 5mM Oil red O in 60% isopropanol (filtered), 1ml per well, was added to dry wells and left for 10 minutes before washing four times with water. Oil red O was eluted with 1ml 100% isopropanol per well and the optical density measured at 500nm. Chondrocytes were assayed for collagen accumulation (after 21 days from the onset of the differentiation protocol) using Sirius red/fast green collagen staining kit purchased from Amsbio. Osteocytes were assayed for calcium accumulation (21 days after the onset of the differentiation protocol) by the method of Jager et al, 2005. In each case, values were compared with those of control cells which had been cultured under normal growth conditions without being exposed to differentiation protocols.
Cells were inoculated at a density of 2x10^5 cells/well into 6 well plates and the chondrocyte-differentiation protocol followed (refer to Experimental Procedures for full protocol). After 21 days, cells were fixed with Kahle fixative and stained with Sirius dye. Dye was extracted and the absorbance read at 540nm. n=3 ** p<0.004; *** p<0.0001

[2] = system: hMSCs; assay: Osteocyte differentiation, Ca2+ accumulation by cresopthalein; details: for Absorbance at 577nm, Osteocyte-differentiated cells: 21 days; for Absorbance at 577nm, Control cells: no differentiation protocol
Description: as §1
Cells were inoculated at a density of 3x10^4 cells/well into 6 well plates and the osteocyte differentiation protocol followed (refer to Experimental Procedures for full protocol). After 21 days, cells were incubated with 0.6M HCl for 24 hours before calcium per well was measured by complexing with cresopthalein and measuring absorbance at 577nm. C: Absorbance at 540nm for cells treated with Sirius red/fast green dye to measure collagen accumulation.

[3] = system: hMSCs; assay: Adipocyte differentiation, fat accumulation by oil red O staining; details: for Absorbance of eluate at 500nm, Adipocyte-differentiated cells: 18 days; for Absorbance of eluate at 500nm, Control cells: no differentiation protocol
Description: as §1
Cells were inoculated at a density of 2x10^5 cells/well into 6 well plates and the adipocyte differentiation protocol followed (refer to Experimental Procedures for full protocol). After 18 days, medium was removed from wells and cells stained with oil red O. The dye was eluted from the cells and the absorbance of the eluate read at 500 nm. B: Absorbance at 577nm for cells treated with cresopthalein to measure Ca2+ accumulation.

[4] = system: hMSCs; assay: Glycolytic rate in 24-well plates (3H2O production from 5-3H-glucose); details: p5 vs p2
Description: (§2) Cryopreserved cells were thawed, washed with growth medium and seeded at a density of 1 X 10^6 cells per 225cm2 with Dulbecco's Modified Eagle's medium (DMEM) containing 2mM ultra-glutamine, 1g/l glucose, 50µg/ml gentamycin and 10% FBS. Where 3-hydroxybutyrate (3-HB) was included in the growth medium, the concentration was 5mM throughout. Cells were passaged at about 80% confluence. Cells for measurements of glycolysis or oxidation were seeded into 24-well plates at a density of 1 x 10^4 cells per well and used at about 90% confluence. Cells were maintained in either normoxic culture with 20% O2 tension or hypoxic culture with 5% O2 tension in an oxygen-tension controlled incubator. Previous workers have identified 5% O2 as being a physiologically significant level of O2 with respect to in vivo conditions for hMSCs, representing hypoxia (Pattappa et al., 2011).
Glycolysis was measured as the production of ^3H2O from 5-^3H-glucose, which occurs during the step catalysed by enolase. Cells were incubated with 5.5mM glucose containing 17 MBq/mmol 5-^3H-glucose in DMEM without pyruvate, glutamine or glucose for 90 minutes in a total volume of 0.5mls. […] Washing with 2 column volumes of water eluted the ^3H2O which was counted for radioactivity (Tri-Carb 2800TR Liquid Scintillation Analyser).

[5] = system: hMSCs; assay: Substrate oxidation in 24-well plates (14CO2 production from 14C-labelled substrates); details: for increase in substrate-oxidation rate between passage 2 and passage 5: normoxic-cultured cells (20% O2); for oxidation rate relative to glucose (fold higher): normoxic-cultured cells, 10mM acetoacetate vs 5.5mM glucose
Description: as §2
Cells were incubated for 90 minutes in the presence of a single radiolabelled substrate (with addition of unlabelled substrates where indicated) in DMEM (containing no pyruvate, glucose or glutamine) in a total volume of 0.5 mls. The concentrations of single substrates were: 5.5mM glucose (considered similar to median human blood glucose concentration); 2mM pyruvate (considered higher than endogenous pyruvate concentration from glucose metabolism and sufficient to stimulate activity of pyruvate dehydrogenase plus pyruvate carboxylase); 1mM glutamine (considered similar to human blood glutamine concentrations); 10mM acetoacetate (considered similar to intracellular acetoacetate concentrations produced from maximal blood ketone body concentrations). In addition, substrates incorporated radiolabels as follows: glucose: ^21 MBq/mmol D-U-^14C-glucose; pyruvate: 0.35MBq/mmol 1-^14C-pyruvate; acetoacetate: 0.185MBq/mmol 3-^14C-acetoacetate; glutamine: 1.2 MBq/mmol U-^14C-glutamine. Evolved ^14CO2 was trapped and measured by the method of Collins et al. (1998), except that, after addition of perchloric acid to the wells, plates were gently agitated for 60 minutes to release dissolved ^14CO2. Filter papers containing trapped ^14CO2 were counted in Ecoscint using a Tri-Carb 2800TR Liquid Scintillation Analyser. […] Rates of ATP-production from individual substrates were calculated on the basis of mol/mol production as follows: glucose: 31; glutamine: 20; pyruvate: 12.5; acetoacetate: 20. For calculations of ATP-production from acetoacetate plus pyruvate, separate incubations were performed with ^14C-acetoacetate in the presence of unlabelled pyruvate and with ^14C-pyruvate in the presence of unlabelled acetoacetate. Rates of ATP-production from the labelled substrate were calculated for each condition and the results summed.

[6] = system: hMSCs; assay: cells; details: for ROS generated per mole of substrate oxidised: 90 minutes incubation with 5.5mM glucose or 10mM acetoacetate, normoxic-cultured cells, passage 5; for fold induction at 20 µM: Homo sapiens, 24 h, 24h pre-incubation with 20µM genipin, passage 5, normoxic
Description: Cells were incubated under appropriate conditions in 24-well plates in a total volume of 0.2ml for 90 minutes. At 90 minutes, ROS were assayed using an Oxiselect Amplex Red kit from Cell Biolabs, Inc., according to the manufacturer's instructions. Where genipin was used, cells were pre-incubated for 24 hours with 20 µM genipin.

[7] = system: hMSCs; assay: Calculated rates of ATP-production from substrate oxidation and glycolysis; details: full oxidation assumed; passage 2, normoxic-cultured cells
Description: Cells were incubated for 90 minutes in the presence of a single radiolabelled substrate (with addition of unlabelled substrates where indicated) in DMEM (containing no pyruvate, glucose or glutamine) in a total volume of 0.5 mls. […] Evolved ^14CO2 was trapped and measured by the method of Collins et al. (1998), except that, after addition of perchloric acid to the wells, plates were gently agitated for 60 minutes to release dissolved ^14CO2. Filter papers containing trapped ^14CO2 were counted in Ecoscint using a Tri-Carb 2800TR Liquid Scintillation Analyser. […] Rates of ATP-production from individual substrates were calculated on the basis of mol/mol production as follows: glucose: 31; glutamine: 20; pyruvate: 12.5; acetoacetate: 20. […] Rates of ATP-production from the labelled substrate were calculated for each condition and the results summed.
ATP-yields were calculated from the following values, as follows: from glycolysis of glucose, it is assumed that 2 moles ATP will be produced per mole glucose glycolysed. […]

[8] = normoxic cells cultured with 5mM 3-HB from passages 1 to 5

CC(O)CC(=O)O (stereo not drawn) [3-HB, 3-hydroxybutyrate]
activation at 5000 µM ([1]; Hypoxia + 5mM 3-HB): 45% | activation at 5000 µM ([1]; Normoxia + 5mM 3-HB): 178% | Absorbance at 540nm, Chondrocyte-differentiated cells ([1]; Hypoxia + 5mM 3-HB): ** 0.806 ± 0.024 | Absorbance at 540nm, Control cells ([1]; Hypoxia + 5mM 3-HB): 0.556 ± 0.008 | Absorbance at 540nm, Chondrocyte-differentiated cells ([1]; Normoxia + 5mM 3-HB): *** 0.887 ± 0.020 | Absorbance at 540nm, Control cells ([1]; Normoxia + 5mM 3-HB): 0.319 ± 0.004 | % increase over control (osteocyte differentiation) ([2]; Hypoxia + 5mM 3-HB): 36% | Absorbance at 577nm, Osteocyte-differentiated cells ([2]; Hypoxia + 5mM 3-HB): *** 0.495 ± 0.007 | Absorbance at 577nm, Control cells ([2]; Hypoxia + 5mM 3-HB): 0.363 ± 0.003 | % increase over control (osteocyte differentiation) ([2]; Normoxia + 5mM 3-HB): 21% | Absorbance at 577nm, Osteocyte-differentiated cells ([2]; Normoxia + 5mM 3-HB): *** 0.375 ± 0.003 | Absorbance at 577nm, Control cells ([2]; Normoxia + 5mM 3-HB): 0.310 ± 0.001 | % increase over control (adipocyte differentiation) ([3]; Hypoxia + 5mM 3-HB): 27% | Absorbance of eluate at 500nm, Adipocyte-differentiated cells ([3]; Hypoxia + 5mM 3-HB): *** 0.727 ± 0.001 | Absorbance of eluate at 500nm, Control cells ([3]; Hypoxia + 5mM 3-HB): 0.570 ± 0.001 | % increase over control (adipocyte differentiation) ([3]; Normoxia + 5mM 3-HB): 34% | Absorbance of eluate at 500nm, Adipocyte-differentiated cells ([3]; Normoxia + 5mM 3-HB): *** 0.698 ±0.005 | Absorbance of eluate at 500nm, Control cells ([3]; Normoxia + 5mM 3-HB): 0.520 ± 0.006 | decrease in glycolytic rates by passage 5 ([4]; cells cultured under hypoxia with 5mM 3-HB): 1.5 fold | increase in glycolytic rate at p5 ([4]; normoxic cells cultured with 5mM 3-HB): 1.4 fold | increase in glucose oxidation rate at passage 5 [5, 8]: 7.5 fold | reduction of acetoacetate oxidation rate at passage 5 [5, 8]: 1.3 fold

CC(=O)CC(=O)O [acetoacetate]
ROS generated per mole of substrate oxidised [6]: 0.0017 moles of ROS | difference in ROS generation per mole substrate oxidised, compared with glucose ([6]; acetoacetate lower than glucose): 4.5 fold | increase in substrate-oxidation rate between passage 2 and passage 5 [5]: 3.5 fold | oxidation rate relative to glucose (fold higher) ([5]; passage 2): 25 fold | oxidation rate relative to glucose (fold higher) ([5]; passage 5): 42 fold

COC(=O)C1=CO[C@@H](O)[C@@H]2C(CO)=CC[C@H]12 [genipin]
fold induction at 20 µM ([6]; read-out: increase in ROS-production, acetoacetate substrate (10mM)): 2 | fold induction at 20 µM ([6]; read-out: increase in ROS-production, glucose substrate (5.5mM)): 1.6

OC[C@H]1OC(O)[C@H](O)[C@@H](O)[C@@H]1O (stereo partly drawn) [glucose, reference compound]
ROS generated per mole of substrate oxidised [6]: 0.076 moles of ROS | ATP produced compared with acetoacetate alone (times less) [7]: 16 times less | reduction of rate of acetoacetate-oxidation by added substrate ([5]; 10mM acetoacetate plus unlabelled 5.5mM glucose, passage 2, normoxic-cultured cells): more than 3 fold | increase in substrate-oxidation rate between passage 2 and passage 5 [5]: 2 fold

NC(=O)CC[C@H](N)C(=O)O [glutamine, reference compound]
ATP produced compared with acetoacetate alone (times less) [7]: 33 times less | increase in substrate-oxidation rate between passage 2 and passage 5 [5]: not significantly different

O=C(O)CC(O)C(=O)O (stereo not drawn) [malate, reference compound]
effect of added substrate on rates of pyruvate oxidation ([5]; data not shown): no significant effect

From patent publication EP3358006A1, “METHOD AND MEDIUM FOR CULTIVATING PRIMARY CELLS IN VITRO” (Mares Ltd., priority 2017, dated 2018)
